Assay results as given in patent US8809368B2, “Compounds affecting gap junction activity” (Kansas State University Research Foundation, priority 2006, dated 2014).

Tests used:
[1] = system: PKCγ; assay: Expression of PKCγ; assay type: cell-based; conditions: 100, 200, 300 and 500 nM, 24 hours
Protocol: However, PQ3 has an opposite effect on mammary cancer cell lines. […] A summary of PQ-mediated GJIC activity and colony growth in breast and colon cancer cells is presented in Tables 1, 2, and 3, as well as FIGS. 10-13. In FIG. 10, SW620 cells were dosed for 24 hours with PQ1 at 100, 200, 300, and 500 nM. The gap junction activity was measured as a percent of control, as previously described. It was seen that all concentrations on PQ1 increased the gap junction activity in SW620 colon cancer cells as compared to the control. In FIG. 11, the effect of PQ1 on the expression of PKCγ was studied at concentrations of 100, 200, 300 and 500 nM PQ1 for 24 hours. It is seen in FIG. 11 that PQ1 has no effect on the expression of PKCγ at the levels tested. In FIGS. 12 and 13, the effect of PQ1 on the colony growth of SW620 colon cancer cells was measured with 1-100 nM PQ1 (FIG. 12) and 10 uM PQ1 (FIG. 13).

[2] = system: human primary epithelial cells (MEC, normal cells); assay: Scrape load/dye transfer GJIC assay, primary epithelial cells (MEC); assay type: cell-based; conditions: compared to its controls
Protocol: Intercellular communication in many organs is maintained via GJIC. Several GJIC enhancers have been reported; however, an effective clinical drug targeting gap junction is not available at this time. The effect of PQ1 on the GJIC activity in T47D breast cancer cells was tested. […] Conversely, PQ1 has no effect on GJIC activity of human primary epithelial cells (MEC, normal cells) compared to its controls (data not shown). The distance of dye transfer from section cut to the farthest cells with dye was measured. […] MECs have uniform uptake of Lucifer yellow. This is due to the existing high level of gap junction activity of these normal cells.
Gap Junction Activity. For scrape load/dye transfer (SL/DT) assay, cells were grown to 90% confluency on cover slips, dosed with 10, 50, 100 and 200 nM of TCDD for 40 minutes. After that cells were washed three times with PBS. The 2.5 μl of 1% (w/v) Lucifer yellow and 0.75% (w/v) of Rhodamine dextran was mixed and added in the center of the coverslip. Two cuts crossing each other in the center of the coverslip were made. After three minutes, cells were washed three times with PBS and incubated at 37° C. in tissue culture media for 20 minutes. The cells were then washed with PBS three times and fixed in 2.5% paraformaldehyde for 10 minutes. Cells were mounted on a slide, sealed and visualized under a fluorescence microscope at 10× objective.

[3] = system: T47D cells; assay: Transepithelial electrical resistance (TEER), T47D monolayers; assay type: cell-based, human; conditions: 100, 200 or 500 nM, 48 hours, compared to control
Protocol: T47D cells were treated with 0, 100, 200, and 500 nM PQ1 for 48 hours. TEER assay was performed as described herein. TEER values of each treatment in KΩ/cm^2 were converted to relative percent of control.
Measurement of transepithelial electrical resistance. Cells were grown to 100% confluency on a 12-well transwell (BD Biosciences, San Jose, Calif.) and treated with 0, 100, 200, and 500 nM PQ1 for 48 hours. Transepithelial electrical resistance (TEER) of the T47D monolayers was measured by a high-precision. Resulting voltages were recorded with the aid of a differential amplifier with a high input resistance. Data were corrected for well area (given in Ω·cm^2).

[4] = system: Cx26; assay: Western blot of Cx26 in T47D cells; assay type: cell-based, human; conditions: 10, 100, 200 and 500 nM, 24 hours
Protocol: (§1) T47D cells were dosed with PQ1 for 24 hours. The Western blot analysis was performed as described in Materials and Methods. Whole cell extract was analyzed for Cx 43, Cx32, and Cx26. Experiment was performed at least three times.
(§2) Furthermore, whole cell extract of PQ1 treatment was analyzed for the changes in gap junctional proteins, connexins. Cells were treated with 10, 100, 200, and 500 nM PQ1 for 24 hours. Western blot analysis was performed against Cx26, Cx32, and Cx43 (FIG. 17). […] Anti-tubulin was used as a loading control.
(§3) Western Blot Analysis. Cells were grown in serum supplemented RPMI media until they were 90% confluent in 75 cm^2 flasks. Cells were kept in starving media containing phenol red-free DMEM with 5% charcoal dextran stripped serum, overnight. Cells were dosed with 0, 10, 100, 200 and 500 nM of PQ1 for 24 hours. Cells were washed three times with cold PBS and then were harvested using lysis buffer (20 mM Tris pH 7.5, 0.5 mM EDTA, 0.5 mM EGTA, 0.5% Triton X-100) with 1:1000 dilution of protease inhibitors (Sigma-Aldrich, Saint Louis, Mo.). Cell lysate was sonicated and centrifuged at 13,000 rpm for 30 minutes at 4° C. […] Western blots were detected by enhanced chemiluminescence detection reagents (Pierce, Rockford, Ill., USA).

[5] = system: Cx32; assay: Western blot of Cx32 in T47D cells; assay type: cell-based, human; conditions: 10, 100, 200 and 500 nM, 24 hours
Protocol: as §1, §2, §3

[6] = system: Cx43; assay: Western blot of Cx43 and phosphorylated Cx43 in T47D cells; assay type: cell-based, human; conditions: 10, 100, 200 and 500 nM, 24 hours
Protocol: as §1, §2, §3

[7] = system: T47D breast cancer cells; assay: Xenograft tumor growth of T47D cells in Nu/Nu mice; assay type: in vivo
Protocol: Mice were inoculated with 17β-estradiol (1.7 mg/pellet) before the injection of 1×10^7 T47D cells subcutaneously into the inguinal region of mammary fat pad. Animals received treatment at 1 μM PQ1 or 10 μM tamoxifen. The results after 6 days of injection show a decrease in tumor growth of PQ1-treated animals compared to control or tamoxifen.
The anti-tumor effect of PQ1 was also observed in animal model. Nu/Nu mice were inoculated with estradiol-17β (1.7 mg/pellet) before the injection of 1×10^7 T47D breast cancer cells subcutaneously into inguinal region of mammary fat pad.
Xenograft Tumors of T47D cells in Nu/Nu Mice. Nu/Nu mice were ordered from The Jackson Laboratory. Mice were inoculated with estradiol-17β (1.7 mg/pellet) before the injection of 1×10^7 T47D breast cancer cells subcutaneously into inguinal region of mammary fat pad. Cell viability of T47D cells were performed prior to injection. The tumor size was measured in three dimensions with calipers every 2 days starting at Day 7. […] When tumors reached 30-50 mm^3, three animals were randomly assigned to each treatment group. Animals were injected with 1 μM of PQ1 or 10 μM of tamoxifen and a single injection of treatment was set for 7 days and daily measurement of tumor size was recorded.

## COc1cc(NCCCN)c2nccc(C)c2c1Oc1cccc(C(F)(F)F)c1.O=C(O)CCC(=O)O [PQ1, 6-Methoxy-8-[(3-aminopropyl)amino]-4-methyl-5-(3-trifluoromethylphenyloxy) quinoline succinic acid]
[1]
  expression of PKCγ: no effect
[2]
  GJIC activity: no effect
[3]
  tight junction ion permeability by TEER: no significant effect
[4]
  Cx26 expression: no effect
[5]
  Cx32 expression: no effect
[6]
  Cx43 expression: no effect
[7]; Day 2, 1 μM PQ1, single injection
  tumor size compared to control: decrease
[7]; Day 6 after one injection, 1 μM PQ1, compared to control
  decrease of tumor growth: 70%
[7]; after 6 days of injection, 1 μM PQ1
  tumor growth compared to control or tamoxifen: decrease
